Measurements reported in US8357506B2, “Method of identifying improved conjugates of biologically active compounds” (priority 2002, dated 2013).

What was measured:
white blood cells = assay: Immune cell selective uptake (immune selectivity ratio) in blood cell / buffy coat preparations; format: cell-based; conditions: fluorescent compounds, FIG. 1
Procedure: Freshly drawn heparinised blood or buffy coat preparations are used for the determination of immune cell partition ratios. Buffy coat preparations are preferred. These may be obtained from donor blood by simple centrifugation of whole blood (4795 g for 10 minutes). Following centrifugation, plasma is collected from the surface, after which immune cells are expressed from the donor bags along with the erythrocytes lying immediately below the leukocyte layer. This ensures high yields and a sufficient population of erythrocytes for partition. 5 ml of the resulting cell suspension are dispensed into T25 culture flasks. Substrates are added to a final concentration between 1 and 10 μM and the suspensions incubated at 37° C., in a 5% CO2 atmosphere. For analysis of uptake kinetics, samples are withdrawn at 0, 2, 5, 10, 30, 60, 90, 180, or 240 min after substrate addition. For screening purposes, samples are taken at 0 and 120 minutes. […]
Uptake of fluorescent compounds is monitored using fluorescence microscopy. Excitation and emission wavelengths depend of the fluorescence label in use. […]
Cell lysates are analysed using a HP 1100 HPLC System (Agilent Technologies, Waldbronn, Germany) with a Kromasil 3.5μ […], 50×2.0 mm column and guard cartridge system (both, Phenomenex, Aschaffenburg, Germany) run at 30° C. […]
Masses are monitored according to the known or expected M/Z ratios. […]

E. coli = assay: Antibiotic activity testing (TC50, dilution assay, turbidity); format: cell-based, E. coli (DH5α)
Procedure: The TC50 or MIC procedure for antibiotic sensitivity testing involves an antibiotic dilution assay, which can be performed in microtitre plates. A series of twofold dilutions of each antibiotic are made in the wells, and then all wells are inoculated with a standard amount of the same test organism. After incubation, growth in the presence of the various antibiotics is observed by measuring turbidity.
Bacteria: B. pumilus and E. coli (DH5α)
Bacterial cultures are initiated from the plates for 2 to 3 weeks. After this time period bacteria are streaked out on new plates from the backups stored at −80° C. Due to the lack of resistance of the bacteria, new cultures are not to be initiated from an old plate or any liquid cultures derived from old plates.
Growth medium (GM) (per liter): 10 g Bacto-tryptone, 5 g Bacto-yeast extract, 6 g HEPES (25 mM), 5.4 g NaCl, pH 7.3
Compound stocks 10 or 100 mM in DMSO stored at −20° C.
• 1. Grow B. pumilus from an LB agar plate in a flask (max. 10% volume) up to about 50 ml in growth medium (GM) • 2. Dilute overnight suspension 1:10 in GM • 3. Determine OD600 of diluted bacterial suspension • 4. Dilute bacterial suspension in GM to an OD600 of 0.03-0.04. (6 ml/plate) • 5. Add 200 μl GM to the outer wells (Row A, Row H, Column 1, Column 12) • 6. Add 100 μl GM to each well starting from C2, row 3. • 7. […]
8.3. […] Determine OD600 on plate reader.

Structure (SMILES)	uptake rate (white blood cells)	TC50 in E. coli (E. coli) [µM]
COc1cc(C)c(/C(=C\C(C)=O)CC(N)C(=O)O)cc1OC (centres unmarked) [Compound 4]	rapid	
CCC1OC(=O)C(C)C(OC2CC(C)(OC)C(O)C(C)O2)C(C)C(OC2OC(C)CC(NC)C2O)C(C)(O)CC(C)CN(C)C(C)C(O)C1(C)O (centres unmarked) [Compound 96]		28
